Structures can show the parent of a compound that is named as a salt.

The assay concerns the target T1, human GPR120 (Homo sapiens, UniProt Q5NUL3).
T1 construct: expressed in transfected cells; host or cells: CHO-K1
T1 sequence (Q5NUL3 1-361): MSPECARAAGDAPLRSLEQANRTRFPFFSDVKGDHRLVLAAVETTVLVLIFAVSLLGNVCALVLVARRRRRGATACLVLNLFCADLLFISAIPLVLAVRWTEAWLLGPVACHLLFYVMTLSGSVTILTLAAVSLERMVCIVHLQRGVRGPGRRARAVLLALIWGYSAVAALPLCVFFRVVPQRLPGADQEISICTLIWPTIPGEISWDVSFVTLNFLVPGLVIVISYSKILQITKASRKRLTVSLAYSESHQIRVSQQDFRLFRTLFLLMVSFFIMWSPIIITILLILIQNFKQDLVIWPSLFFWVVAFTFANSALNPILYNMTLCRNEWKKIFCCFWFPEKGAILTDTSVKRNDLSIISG
In words: Human GPR120 IP1 assay (inositol phosphate turnover). The format is cell-based. Particulars: IP1 accumulation in CHO-K1 cells stably expressing the short form of human GPR120. The essentials:
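Human receptor (short form) was stably expressed in CHO-K1 cells and rat receptor in HEK293 cells. Cells were exposed to compound for 60 min at 37° C in kit stimulation buffer. IP1 was quantified by HTRF 665/620 nm ratio against a standard curve, normalized to a reference compound, with EC50 from 4-parameter fits.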

Usually EC50 stands for the concentration giving half of the maximal effect. High values mean weaker potency, low ones greater potency. `Oc1cc(-c2cnc(O[C@H]3C[C@@H](Oc4ccc(F)c(C(F)(F)F)c4)C3)cn2)on1` [Example 70, 5-[5-({cis-3-[4-fluoro-3-(trifluoromethyl)phenoxy]cyclobutyl}oxy)pyrazin-2-yl]isoxazol-3-ol] gave a concentration for a half-maximal effect (EC50) of 0.024 µM. The figure for `Cc1cc(O[C@H]2C[C@@H](Oc3cnc(-c4cc(O)no4)cn3)C2)ccc1F` [Example 71, 5-(5-{[cis-3-(4-fluoro-3-methylphenoxy)cyclobutyl]oxy}pyrazin-2-yl)isoxazol-3-ol] is 0.038 µM; for `Oc1cc(-c2ccc(O[C@H]3C[C@@H](OCc4cccc(C(F)(F)F)c4)C3)nc2)on1` [Example 74, 5-(3-hydroxyisoxazol-5-yl)-2-[(cis-3-{[3-(trifluoromethyl)benzyl]oxy}cyclobutyl)oxy]pyridinium trifluoroacetate] it is 0.011 µM; for `Cc1nc(C(F)(F)F)c(CO[C@H]2C[C@@H](Oc3ccc(-c4cc(O)no4)cn3)C2)s1` [Example 75, 5-(3-hydroxyisoxazol-5-yl)-2-[(cis-3-{[2-methyl-4-(trifluoromethyl)-1,3-thiazol-5-yl]methoxy}cyclobutyl)oxy] pyridinium trifluoroacetate] it is 0.149 µM.

On to `Oc1cc(-c2ccc(O[C@H]3C[C@@H](COc4ccccc4)C3)nc2)on1` [Example 82, 5-(3-hydroxyisoxazol-5-yl)-2-{[cis-3-(phenoxymethyl)cyclobutyl]oxy}pyridinium chloride], for which the EC50 is 0.0071 µM. Then `Oc1cc(-c2cnc(O[C@H]3C[C@@H](COc4ccccc4)C3)cn2)on1` [Example 83, sodium 5-(5-{[cis-3-(phenoxymethyl)cyclobutyl]oxy}pyrazin-2-yl)isoxazol-3-olate], with 0.017 µM; and `Oc1cc(-c2cnc(O[C@H]3C[C@@H](COc4cccc(F)c4)C3)cn2)on1` [Example 84, sodium 5-[5-({cis-3-[(3-fluorophenoxy)methyl]cyclobutyl}oxy)pyrazin-2-yl]isoxazol-3-olate], with 0.012 µM.

Regarding `Oc1cc(-c2cnc(O[C@H]3C[C@@H](COc4ccccc4F)C3)cn2)on1` [Example 85, sodium 5-[5-({cis-3-[(2-fluorophenoxy)methyl]cyclobutyl}oxy)pyrazin-2-yl]isoxazol-3-olate], the response was half-maximal at 0.025 µM (EC50). The figure for `CCOc1cc([C@]2(F)C[C@@H](Oc3ccc(-c4cc(O)no4)cn3)C2)ccn1` [Example 86, sodium 5-(6-{[cis-3-(2-ethoxypyridin-4-yl)-3-fluoro-cyclobutyl]oxy}pyridin-3-yl)isoxazol-3-olate] is 0.026 µM. The figure for `Oc1cc(-c2ccc(O[C@H]3C[C@](F)(c4ccnc(OC5CC5)c4)C3)nc2)on1` [Example 90] is 0.022 µM; for `CC1[C@@H](Oc2cnc(-c3cc(O)no3)cn2)C[C@H]1c1ccccc1` (stereo partly drawn) [Example 92, 5-(5-{[(1S,3R)-2-methyl-3-phenylcyclobutyl]oxy}pyrazin-2-yl)isoxazol-3-ol] it is 0.017 µM; for `CC1(c2ccc(Cl)cc2)CC(Oc2cnc(-c3cc(O)no3)cn2)C1` (stereo not drawn) [Example 93, 5-(5-{[3-(4-chlorophenyl)-3-methylcyclobutyl]oxy}pyrazin-2-yl)isoxazol-3-ol] it is 0.215 µM. Then `Oc1cc(-c2ccc(O[C@H]3C[C@@](F)(c4ccc(C(F)(F)F)cn4)C3)nc2)on1` [Example 97, 2-(trans-1-fluoro-3-{[5-(3-hydroxyisoxazol-5-yl)pyridin-2-yl]oxy}cyclobutyl)-5-(trifluoromethyl)pyridinium trifluoroacetate], with 0.022 µM; and `CCOc1cc([C@]2(F)C[C@H](Oc3ccc(-c4cc(O)no4)cn3)C2)ccn1` [Example 98, Sodium 5-(6-{[trans-3-(2-ethoxypyridin-4-yl)-3-fluorocyclobutyl]oxy}pyridin-3-yl)isoxazol-3-olate], with 0.015 µM. In turn, `CC(C)Oc1cc([C@]2(F)C[C@@H](Oc3ccc(-c4cc(O)no4)cn3)C2)ccn1` [Example 99, sodium 5-[6-({cis-3-fluoro-3-[2-(propan-2-yloxy)pyridin-4-yl]cyclobutyl}oxy)pyridin-3-yl]isoxazol-3-olate] returned an EC50 of 0.017 µM.

The values are drawn from patent US10864211B2, “Hydroxy isoxazole compounds useful as GPR120 agonists” (Merck Sharp & Dohme Corp., priority 2016, dated 2020).
